Measurements: PubChem BioAssay AID1259407 (Chemical Carcinogenesis Research Information System (CCRIS), 2018)
The source made the active and inactive calls. No rule for the calls is given here.

System: CCRIS mutagenicity, Ames/micronucleus/aberration tests
Test: CCRIS mutagenicity studies
Conditions: Test System: AMES SALMONELLA TYPHIMURIUM
[1] = Strain/Indicator: TA97, Metabolic Activation: HAMSTER, LIVER, S-9, AROCLOR 1254 (10%), Method: PREINCUBATION
[2] = Strain/Indicator: TA97, Metabolic Activation: HAMSTER, LIVER, S-9, AROCLOR 1254 (30%), Method: PREINCUBATION
[3] = Strain/Indicator: TA97, Metabolic Activation: NONE, Method: PREINCUBATION
[4] = Strain/Indicator: TA97, Metabolic Activation: RAT, LIVER, S-9, AROCLOR 1254 (10%), Method: PREINCUBATION
[5] = Strain/Indicator: TA97, Metabolic Activation: RAT, LIVER, S-9, AROCLOR 1254 (30%), Method: PREINCUBATION
[6] = Strain/Indicator: TA98, Metabolic Activation: HAMSTER, LIVER, S-9, AROCLOR 1254 (10%), Method: PREINCUBATION
[7] = Strain/Indicator: TA98, Metabolic Activation: HAMSTER, LIVER, S-9, AROCLOR 1254 (30%), Method: PREINCUBATION
[8] = Strain/Indicator: TA98, Metabolic Activation: NONE, Method: PREINCUBATION
[9] = Strain/Indicator: TA98, Metabolic Activation: RAT, LIVER, S-9, AROCLOR 1254 (10%), Method: PREINCUBATION
[10] = Strain/Indicator: TA98, Metabolic Activation: RAT, LIVER, S-9, AROCLOR 1254 (30%), Method: PREINCUBATION
[11] = Strain/Indicator: TA100, Metabolic Activation: HAMSTER, LIVER, S-9, AROCLOR 1254 (10%), Method: PREINCUBATION
[12] = Strain/Indicator: TA100, Metabolic Activation: HAMSTER, LIVER, S-9, AROCLOR 1254 (30%), Method: PREINCUBATION
[13] = Strain/Indicator: TA100, Metabolic Activation: NONE, Method: PREINCUBATION
[14] = Strain/Indicator: TA100, Metabolic Activation: RAT, LIVER, S-9, AROCLOR 1254 (10%), Method: PREINCUBATION
[15] = Strain/Indicator: TA100, Metabolic Activation: RAT, LIVER, S-9, AROCLOR 1254 (30%), Method: PREINCUBATION
[16] = Strain/Indicator: TA1535, Metabolic Activation: HAMSTER, LIVER, S-9, AROCLOR 1254 (10%), Method: PREINCUBATION
[17] = Strain/Indicator: TA1535, Metabolic Activation: HAMSTER, LIVER, S-9, AROCLOR 1254 (30%), Method: PREINCUBATION
[18] = Strain/Indicator: TA1535, Metabolic Activation: NONE, Method: PREINCUBATION
[19] = Strain/Indicator: TA1535, Metabolic Activation: RAT, LIVER, S-9, AROCLOR 1254 (10%), Method: PREINCUBATION
[20] = Strain/Indicator: TA1535, Metabolic Activation: RAT, LIVER, S-9, AROCLOR 1254 (30%), Method: PREINCUBATION
[21] = Strain/Indicator: TA1537, Metabolic Activation: HAMSTER, LIVER, S-9, AROCLOR 1254 (30%), Method: PREINCUBATION
[22] = Strain/Indicator: TA1537, Metabolic Activation: NONE, Method: PREINCUBATION
[23] = Strain/Indicator: TA1537, Metabolic Activation: RAT, LIVER, S-9, AROCLOR 1254 (30%), Method: PREINCUBATION

Measured: mutagenic call

Cc1cccc(Br)c1
inactive: [1] inactive; negative | [2] inactive; negative | [3] inactive; negative | [4] inactive; negative | [5] inactive; negative | [6] inactive; negative | [7] inactive; negative | [8] inactive; negative | [9] inactive; negative | [10] inactive; negative | [11] inactive; negative | [12] inactive; negative | [13] inactive; negative | [14] inactive; negative | [15] inactive; negative | [16] inactive; negative | [17] inactive; negative | [18] inactive; negative | [19] inactive; negative | [20] inactive; negative | [21] inactive; negative | [22] inactive; negative | [23] inactive; negative

ClC1=C(Cl)[C@]2(Cl)[C@H]3[C@H]([C@@H]4C=C[C@H]3C4)[C@@]1(Cl)C2(Cl)Cl
inactive: Strain/Indicator: TA97, Metabolic Activation: HAMSTER, LIVER, S-9, AROCLOR 1254 (10 OR 30%), Method: PREINCUBATION inactive; negative | [3] inactive; negative | Strain/Indicator: TA97, Metabolic Activation: NONE, Method: STANDARD PLATE inactive; negative | Strain/Indicator: TA97, Metabolic Activation: RAT, LIVER, S-9, AROCLOR 1254 (10 OR 30%), Method: PREINCUBATION inactive; negative | Strain/Indicator: TA97, Metabolic Activation: RAT, LIVER, S-9, AROCLOR 1254, Method: STANDARD PLATE inactive; negative | Strain/Indicator: TA98, Metabolic Activation: HAMSTER, LIVER, S-9, AROCLOR 1254 (10 OR 30%), Method: PREINCUBATION inactive; negative | [8] inactive; negative | Strain/Indicator: TA98, Metabolic Activation: NONE, Method: STANDARD PLATE inactive; negative | Strain/Indicator: TA98, Metabolic Activation: RAT, LIVER, S-9, AROCLOR 1254 (10 OR 30%), Method: PREINCUBATION inactive; negative | Strain/Indicator: TA98, Metabolic Activation: RAT, LIVER, S-9, AROCLOR 1254, Method: STANDARD PLATE inactive; negative | Strain/Indicator: TA100, Metabolic Activation: HAMSTER, LIVER, S-9, AROCLOR 1254 (10 OR 30%), Method: PREINCUBATION inactive; negative | [13] inactive; negative | Strain/Indicator: TA100, Metabolic Activation: NONE, Method: STANDARD PLATE inactive; negative | Strain/Indicator: TA100, Metabolic Activation: RAT, LIVER, S-9, AROCLOR 1254 (10 OR 30%), Method: PREINCUBATION inactive; negative | Strain/Indicator: TA100, Metabolic Activation: RAT, LIVER, S-9, AROCLOR 1254, Method: STANDARD PLATE inactive; negative | Strain/Indicator: TA102, Metabolic Activation: NONE, Method: STANDARD PLATE inactive; negative | Strain/Indicator: TA102, Metabolic Activation: RAT, LIVER, S-9, AROCLOR 1254, Method: STANDARD PLATE inactive; negative | Strain/Indicator: TA1535, Metabolic Activation: HAMSTER, LIVER, S-9, AROCLOR 1254 (10 OR 30%), Method: PREINCUBATION inactive; negative | [18] inactive; negative | Strain/Indicator: TA1535, Metabolic Activation: RAT, LIVER, S-9, AROCLOR 1254 (10 OR 30%), Method: PREINCUBATION inactive; negative | [21] inactive; negative | [22] inactive; negative | [23] inactive; negative

O=C(O)C1=NN(c2ccc(S(=O)(=O)O)cc2)C(=O)C1N=Nc1ccc(S(=O)(=O)O)cc1.[Al] (centres undefined)
inactive: [1] inactive; negative | [2] inactive; negative | [3] inactive; negative | [4] inactive; negative | [5] inactive; negative | [6] inactive; negative | [7] inactive; negative | [8] inactive; negative | [9] inactive; negative | [10] inactive; negative | [11] inactive; negative | [12] inactive; negative | [13] inactive; negative | [14] inactive; negative | [15] inactive; negative | [16] inactive; negative | [17] inactive; negative | [18] inactive; negative | [19] inactive; negative | [20] inactive; negative | [21] inactive; negative | [22] inactive; negative | [23] inactive; negative
